{"source": "patent US7416898B2", "about": "“Chemiluminescent 1,2-dioxetanes” (priority 2002, dated 2008)", "origin": "cited, not measured here", "conditions": "compared with 1,2-dioxetanes (14) and (15)", "data": [{"smiles": "O=C(O)CCCOC1(c2cccc(OP(=O)(O)O)c2)OOC12C1CC3CC(C1)CC2C3", "note": "(stereo not shown) [Dioxetane 16]", "values": [{"measurement": "solubility in an aqueous system", "result": "more soluble in an aqueous system than 1,2-dioxetane (14) and (15)"}]}]}
